In PubChem BioAssay (NCI):
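Each compound was tested at five concentrations against cells in 96-well plates for 48 hours. GI50 marks 50% less growth. TGI is the concentration that stops growth completely.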

Legend:
Assay in all cases: growth of human tumour cells (NCI), 48 h
786-0 renal = system: 786-0 renal
A498 renal = system: A498 renal
A549 NSCLC = system: A549 NSCLC
ACHN renal = system: ACHN renal
BT-549 breast = system: BT-549 breast
CAKI-1 renal = system: CAKI-1 renal
CCRF-CEM leukemia = system: CCRF-CEM leukemia
COLO 205 colon = system: COLO 205 colon
DU-145 prostate = system: DU-145 prostate
EKVX NSCLC = system: EKVX NSCLC
HCC-2998 colon = system: HCC-2998 colon
HCT-116 colon = system: HCT-116 colon
HCT-15 colon = system: HCT-15 colon
HL-60(TB) leukemia = system: HL-60(TB) leukemia
HOP-62 NSCLC = system: HOP-62 NSCLC
HOP-92 NSCLC = system: HOP-92 NSCLC
HS 578T breast = system: HS 578T breast
HT29 colon = system: HT29 colon
IGROV1 ovarian = system: IGROV1 ovarian
K-562 leukemia = system: K-562 leukemia
KM12 colon = system: KM12 colon
LOX IMVI melanoma = system: LOX IMVI melanoma
M14 melanoma = system: M14 melanoma
MALME-3M melanoma = system: MALME-3M melanoma
MCF7 breast = system: MCF7 breast
MDA-MB-435 = system: MDA-MB-435
MDA-MB-468 breast = system: MDA-MB-468 breast
MOLT-4 leukemia = system: MOLT-4 leukemia
NCI-H226 lung = system: NCI-H226 lung
NCI-H23 lung = system: NCI-H23 lung
NCI-H460 lung = system: NCI-H460 lung
NCI-H522 lung = system: NCI-H522 lung
NCI/ADR-RES ovarian = system: NCI/ADR-RES ovarian
OVCAR-3 ovarian = system: OVCAR-3 ovarian
OVCAR-4 ovarian = system: OVCAR-4 ovarian
OVCAR-5 ovarian = system: OVCAR-5 ovarian
OVCAR-8 ovarian = system: OVCAR-8 ovarian
PC-3 prostate = system: PC-3 prostate
RPMI-8226 leukemia = system: RPMI-8226 leukemia
RXF 393 renal = system: RXF 393 renal
SF-268 CNS = system: SF-268 CNS
SF-295 CNS = system: SF-295 CNS
SF-539 CNS = system: SF-539 CNS
SK-MEL-28 melanoma = system: SK-MEL-28 melanoma
SK-MEL-5 melanoma = system: SK-MEL-5 melanoma
SK-OV-3 ovarian = system: SK-OV-3 ovarian
SN12C renal = system: SN12C renal
SNB-19 CNS = system: SNB-19 CNS
SR leukemia = system: SR leukemia
SW-620 colon = system: SW-620 colon
T-47D breast = system: T-47D breast
TK-10 renal = system: TK-10 renal
U251 CNS = system: U251 CNS
UACC-257 melanoma = system: UACC-257 melanoma
UACC-62 melanoma = system: UACC-62 melanoma

COc1ccc(C(=O)Nc2ccc(-c3ccc4c(c3)NC(=O)/C4=C\c3ccc[nH]3)cc2)cc1
GI50 (786-0 renal): 21.8 µM | TGI (786-0 renal): 71.9 µM | GI50 (A498 renal): > 100 µM | TGI (A498 renal): > 100 µM | GI50 (A549 NSCLC): 15.2 µM | TGI (A549 NSCLC): > 100 µM | GI50 (ACHN renal): 48.2 µM | TGI (ACHN renal): > 100 µM | GI50 (BT-549 breast): 33.4 µM | TGI (BT-549 breast): > 100 µM | GI50 (CAKI-1 renal): > 100 µM | TGI (CAKI-1 renal): > 100 µM | GI50 (CCRF-CEM leukemia): > 100 µM | TGI (CCRF-CEM leukemia): > 100 µM | GI50 (COLO 205 colon): 3.36 µM | TGI (COLO 205 colon): 12.1 µM | GI50 (DU-145 prostate): 8.3 µM | TGI (DU-145 prostate): > 100 µM | GI50 (EKVX NSCLC): 2.46 µM | TGI (EKVX NSCLC): > 100 µM | GI50 (HCC-2998 colon): 9.38 µM | TGI (HCC-2998 colon): > 100 µM | GI50 (HCT-116 colon): 15.7 µM | TGI (HCT-116 colon): > 100 µM | GI50 (HCT-15 colon): 23 µM | TGI (HCT-15 colon): > 100 µM | GI50 (HL-60(TB) leukemia): 32.4 µM | TGI (HL-60(TB) leukemia): > 100 µM | GI50 (HOP-62 NSCLC): 3.76 µM | TGI (HOP-62 NSCLC): 13.5 µM | GI50 (HOP-92 NSCLC): 42.8 µM | TGI (HOP-92 NSCLC): > 100 µM | GI50 (HS 578T breast): 5.82 µM | TGI (HS 578T breast): 49.2 µM | GI50 (HT29 colon): 4.23 µM | TGI (HT29 colon): 19.8 µM | GI50 (IGROV1 ovarian): 37.6 µM | TGI (IGROV1 ovarian): > 100 µM | GI50 (K-562 leukemia): 25.2 µM | TGI (K-562 leukemia): > 100 µM | GI50 (KM12 colon): 53.7 µM | TGI (KM12 colon): > 100 µM | GI50 (LOX IMVI melanoma): 7.29 µM | TGI (LOX IMVI melanoma): > 100 µM | GI50 (M14 melanoma): 7.15 µM | TGI (M14 melanoma): > 100 µM | GI50 (MALME-3M melanoma): 13.4 µM | TGI (MALME-3M melanoma): > 100 µM | GI50 (MCF7 breast): 0.372 µM | TGI (MCF7 breast): > 100 µM | GI50 (MDA-MB-435): > 100 µM | TGI (MDA-MB-435): > 100 µM | GI50 (MDA-MB-468 breast): 0.243 µM | TGI (MDA-MB-468 breast): 1.71 µM | GI50 (MOLT-4 leukemia): 19.4 µM | TGI (MOLT-4 leukemia): > 100 µM | GI50 (NCI-H226 lung): 4.08 µM | TGI (NCI-H226 lung): > 100 µM | GI50 (NCI-H23 lung): 12.4 µM | TGI (NCI-H23 lung): > 100 µM | GI50 (NCI-H460 lung): 12.7 µM | TGI (NCI-H460 lung): > 100 µM | GI50 (NCI-H522 lung): 17 µM | TGI (NCI-H522 lung): 91.3 µM | GI50 (NCI/ADR-RES ovarian): 3.84 µM | TGI (NCI/ADR-RES ovarian): 16.3 µM | GI50 (OVCAR-3 ovarian): 47.1 µM | TGI (OVCAR-3 ovarian): > 100 µM | GI50 (OVCAR-4 ovarian): 3.55 µM | TGI (OVCAR-4 ovarian): 23.2 µM | GI50 (OVCAR-5 ovarian): 30.8 µM | TGI (OVCAR-5 ovarian): > 100 µM | GI50 (OVCAR-8 ovarian): 2.95 µM | TGI (OVCAR-8 ovarian): 10.3 µM | GI50 (PC-3 prostate): 27.7 µM | TGI (PC-3 prostate): > 100 µM | GI50 (RPMI-8226 leukemia): 38.4 µM | TGI (RPMI-8226 leukemia): > 100 µM | GI50 (RXF 393 renal): 8.74 µM | TGI (RXF 393 renal): 50.8 µM | GI50 (SF-268 CNS): 28.7 µM | TGI (SF-268 CNS): > 100 µM | GI50 (SF-295 CNS): 13.9 µM | TGI (SF-295 CNS): 62.4 µM | GI50 (SF-539 CNS): > 100 µM | TGI (SF-539 CNS): > 100 µM | GI50 (SK-MEL-28 melanoma): 79.6 µM | TGI (SK-MEL-28 melanoma): > 100 µM | GI50 (SK-MEL-5 melanoma): > 100 µM | TGI (SK-MEL-5 melanoma): > 100 µM | GI50 (SK-OV-3 ovarian): > 100 µM | TGI (SK-OV-3 ovarian): > 100 µM | GI50 (SN12C renal): 68.9 µM | TGI (SN12C renal): > 100 µM | GI50 (SNB-19 CNS): 30.9 µM | TGI (SNB-19 CNS): > 100 µM | GI50 (SR leukemia): 13.4 µM | TGI (SR leukemia): > 100 µM | GI50 (SW-620 colon): 8.39 µM | TGI (SW-620 colon): > 100 µM | GI50 (T-47D breast): 3.17 µM | TGI (T-47D breast): 41.2 µM | GI50 (TK-10 renal): 19 µM | TGI (TK-10 renal): > 100 µM | GI50 (U251 CNS): 5.29 µM | TGI (U251 CNS): 18.9 µM | GI50 (UACC-257 melanoma): 9.07 µM | TGI (UACC-257 melanoma): > 100 µM | GI50 (UACC-62 melanoma): 20.5 µM | TGI (UACC-62 melanoma): > 100 µM
